In patent US12281149B2, “Modulators of G-protein coupled receptors” (priority 2021, dated 2025) one finds EC50 and Emax data, which are given here for five molecules.

Holding throughout (assay type): cell-based
For experiment [1], the target named is T1, GIP receptor (Homo sapiens, UniProt P48546).
T1 sequence (P48546 22-466): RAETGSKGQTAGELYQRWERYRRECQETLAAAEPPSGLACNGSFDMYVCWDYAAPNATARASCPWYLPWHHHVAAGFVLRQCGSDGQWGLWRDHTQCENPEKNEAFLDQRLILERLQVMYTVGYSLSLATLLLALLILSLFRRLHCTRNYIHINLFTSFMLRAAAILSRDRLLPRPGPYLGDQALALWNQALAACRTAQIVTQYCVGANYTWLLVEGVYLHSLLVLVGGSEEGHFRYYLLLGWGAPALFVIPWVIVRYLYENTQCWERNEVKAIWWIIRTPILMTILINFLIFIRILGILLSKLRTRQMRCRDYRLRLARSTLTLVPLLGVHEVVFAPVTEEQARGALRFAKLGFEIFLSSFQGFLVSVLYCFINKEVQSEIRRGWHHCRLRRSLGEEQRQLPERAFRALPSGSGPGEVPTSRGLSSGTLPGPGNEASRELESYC
Description: HitHunter cAMP assay, GIP receptor. The note with it: for Emax: CHO cells, cAMP, normalized to maximum signal from GIP (high) and DMSO (low), read-out: Emax GIP-1R.

Experiment [2] deals with T1, GIP receptor. Description: PathHunter β-arrestin assay, GIP receptor. Set-up: host or cells: PathHunter CHO-K1 GIPR β-Arrestin Cell Line.
Experiment [3] addresses T2, GLP-1 receptor (Homo sapiens, UniProt P43220). The experiment in a line: HitHunter cAMP assay, GLP-1 receptor. The note with it: for Emax: CHO cells, cAMP, normalized to maximum signal from GLP-1 (high) and DMSO (low), read-out: Emax GLP-1R.
The target of experiment [4] is T2, GLP-1 receptor. Description: PathHunter β-arrestin assay, GLP-1 receptor. Set-up: host or cells: PathHunter CHO-K1 GLP1R β-Arrestin Cell Line.
Setting [5] is: CHO cells stably expressing GIP receptor, cAMP accumulation, 30 min, read-out: EC50 GIP-1R.
Where [6] appears, read: β-arrestin-2 recruitment, PathHunter CHO-K1 GIPR β-Arrestin Cell Line, 90 min at 37° C., normalized to GIP, read-out: GIPR β Arrestin EC50.
Setting [7] is: CHO cells stably expressing human GLP-1 receptor, cAMP accumulation, 30 min, read-out: EC50 GLP-1R.
Setting [8] is: β-arrestin-2 recruitment, PathHunter CHO-K1 GLP1R β-Arrestin Cell Line, 90 min at 37° C., normalized to GLP-1, read-out: GLP-1R β Arrestin EC50.

*1 amine or outer side, *2 acyl side, *3 side chain or, on linkers, in order; H or OH if unused. Where a SMILES comes first, the peptide text is derived from it. Side-chain parts run from the residue outwards. [ ]: non-standard residue; d: D form. The star is where a group is joined. Isobutyryl(2-(3-CN-5-F-Ph)) = CC(C)(C(=O)*)c1cc(F)cc(C#N)c1; C20 diacid = O=C(O)CCCCCCCCCCCCCCCCCCC(=O)*; γGlu = O=C(O)[C@H](CCC(=O)[*:2])N[*:1]; X47 = O=C(CCNCc1cc(O)cc(Cl)c1)*; β3hE = N[C@@H](CCC(=O)O)CC(=O)O; X33 = CCC(CC)(C(=O)*)c1ccccc1; AEEA = NCCOCCOCC(=O)O; Aib = CC(C)(N)C(=O)O; GABA = NCCCC(=O)O; βAla = NCCC(=O)O Where only a bound is given, the exact number is not on record here.

T2 sequence (P43220 24-463): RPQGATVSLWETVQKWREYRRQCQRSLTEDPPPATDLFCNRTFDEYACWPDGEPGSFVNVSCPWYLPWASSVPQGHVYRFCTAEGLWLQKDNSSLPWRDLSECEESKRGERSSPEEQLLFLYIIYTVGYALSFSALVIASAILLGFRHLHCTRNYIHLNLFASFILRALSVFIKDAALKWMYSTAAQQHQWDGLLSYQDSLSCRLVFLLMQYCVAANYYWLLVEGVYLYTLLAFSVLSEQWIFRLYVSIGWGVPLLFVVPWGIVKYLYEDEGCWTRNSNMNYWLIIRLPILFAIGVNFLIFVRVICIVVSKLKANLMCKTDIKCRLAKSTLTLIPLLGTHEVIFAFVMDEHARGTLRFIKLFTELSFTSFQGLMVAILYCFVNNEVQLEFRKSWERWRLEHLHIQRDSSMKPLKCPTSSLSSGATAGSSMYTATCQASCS

On to `CC[C@H](C)[C@H](NC(=O)[C@H](CO)NC(=O)[C@H](CCCCNC(=O)COCCOCCNC(=O)COCCOCCNC(=O)CC[C@H](NC(=O)CCCCCCCCCCCCCCCCCCC(=O)O)C(=O)O)NC(=O)[C@H](CC(=O)O)NC(=O)[C@H](CO)NC(=O)[C@@H](NC(=O)[C@H](Cc1ccccc1)NC(=O)[C@@H](NC(=O)CNC(=O)[C@H](CCC(=O)O)NC(=O)CCNC(=O)C(C)(C)c1cccc(C#N)c1)[C@@H](C)O)[C@@H](C)O)C(=O)N[C@@H](Cc1ccc(O)cc1)C(=O)N[C@@H](CC(C)C)C(=O)N[C@@H](CC(=O)O)C(=O)N[C@@H](CCCCN)C(=O)N[C@@H](CCC(N)=O)C(=O)N[C@@H](C)C(=O)N[C@@H](C)C(=O)NC(C)(C)C(=O)N[C@@H](CCC(=O)O)C(=O)N[C@@H](Cc1ccccc1)C(=O)N[C@H](C(=O)N[C@@H](CC(N)=O)C(=O)N[C@@H](Cc1c[nH]c2ccccc12)C(=O)N[C@@H](CC(C)C)C(=O)N[C@@H](CC(C)C)C(=O)N[C@@H](C)C(=O)NCC(=O)NCC(=O)N1CCC[C@H]1C(=O)N[C@@H](CO)C(=O)N[C@@H](CO)C(=O)NCC(=O)N[C@@H](C)C(=O)N1CCC[C@H]1C(=O)N1CCC[C@H]1C(=O)N1CCC[C@H]1C(=O)N[C@@H](CO)C(N)=O)C(C)C` [Compound 143], for which the EC50 on GIP receptor [1] is 10 to 100 nM; on GIP receptor [2], over 1000 nM; on GLP-1 receptor [3] it was under 0.1 nM; at GLP-1 receptor [4], under 1000 nM. The Emax amounted to 100% at GIP receptor [1] and 101% on GLP-1 receptor [3].
With `CC[C@H](C)[C@H](NC(=O)[C@H](CC(C)C)NC(=O)[C@H](Cc1c[nH]c2ccccc12)NC(=O)[C@H](CCC(N)=O)NC(=O)[C@@H](NC(=O)[C@H](Cc1ccccc1)NC(=O)[C@H](C)NC(=O)[C@H](CCCCNC(=O)COCCOCCNC(=O)COCCOCCNC(=O)CC[C@H](NC(=O)CCCCCCCCCCCCCCCCCCC(=O)O)C(=O)O)NC(=O)[C@H](CCC(N)=O)NC(=O)[C@H](C)NC(=O)[C@@H](NC(=O)[C@H](CCCCN)NC(=O)[C@H](CC(=O)O)NC(=O)[C@H](CC(C)C)NC(=O)C(C)(C)NC(=O)[C@@H](NC(=O)[C@H](CO)NC(=O)[C@H](Cc1ccc(O)cc1)NC(=O)[C@H](CC(=O)O)NC(=O)[C@H](CO)NC(=O)[C@@H](NC(=O)[C@H](Cc1ccccc1)NC(=O)[C@@H](NC(=O)CNC(=O)[C@H](CCC(=O)O)NC(=O)CCCNC(=O)C(C)(C)c1cc(F)cc(C#N)c1)[C@@H](C)O)[C@@H](C)O)[C@@H](C)CC)[C@@H](C)CC)C(C)C)C(=O)N[C@@H](C)C(=O)NCC(=O)NCC(=O)N1CCC[C@H]1C(=O)N[C@@H](CO)C(=O)N[C@@H](CO)C(=O)NCC(=O)N[C@@H](C)C(=O)N1CCC[C@H]1C(=O)N1CCC[C@H]1C(=O)N1CCC[C@H]1C(=O)N[C@@H](CO)C(N)=O` [Compound 200] ({Isobutyryl(2-(3-CN-5-F-Ph))-GABA}-EGTFTSDYSI[Aib]LDKIAQK([AEEA-AEEA-γGlu-C20 diacid])AFVQWLIAGGPSSGAPPPS-NH2), the EC50 was 10 to 100 nM at GIP receptor [1] (setting [5]), over 1000 nM on GIP receptor [2] (setting [6]), 0.1 to 1 nM on GLP-1 receptor [3] (setting [7]) and over 1000 nM at GLP-1 receptor [4] (setting [8]). Further, the Emax worked out at 102% at GIP receptor [1] and 104% at GLP-1 receptor [3].
As to `CC[C@H](C)[C@H](NC(=O)[C@H](CC(C)C)NC(=O)[C@H](Cc1c[nH]c2ccccc12)NC(=O)[C@H](CCC(N)=O)NC(=O)[C@@H](NC(=O)[C@H](Cc1ccccc1)NC(=O)[C@H](C)NC(=O)[C@H](CCCCNC(=O)COCCOCCNC(=O)COCCOCCNC(=O)CC[C@H](NC(=O)CCCCCCCCCCCCCCCCCCC(=O)O)C(=O)O)NC(=O)[C@H](CCC(N)=O)NC(=O)[C@H](C)NC(=O)[C@@H](NC(=O)[C@H](CCCCN)NC(=O)[C@H](CC(=O)O)NC(=O)[C@H](CC(C)C)NC(=O)C(C)(C)NC(=O)[C@@H](NC(=O)[C@H](CO)NC(=O)[C@H](Cc1ccc(O)cc1)NC(=O)[C@H](CC(=O)O)NC(=O)[C@H](CO)NC(=O)[C@@H](NC(=O)[C@H](Cc1ccccc1)NC(=O)[C@@H](NC(=O)CNC(=O)[C@H](CCC(=O)O)NC(=O)CCNCc1cc(O)cc(Cl)c1)[C@@H](C)O)[C@@H](C)O)[C@@H](C)CC)[C@@H](C)CC)C(C)C)C(=O)N[C@@H](C)C(=O)NCC(=O)NCC(=O)N1CCC[C@H]1C(=O)N[C@@H](CO)C(=O)N[C@@H](CO)C(=O)NCC(=O)N[C@@H](C)C(=O)N1CCC[C@H]1C(=O)N1CCC[C@H]1C(=O)N1CCC[C@H]1C(=O)N[C@@H](CO)C(N)=O` [Compound 275] (X47-EGTFTSDYSI[Aib]LDKIAQK([AEEA-AEEA-γGlu-C20 diacid])AFVQWLIAGGPSSGAPPPS-NH2), the EC50 was 10 to 100 nM at GIP receptor [1] (setting [5]), over 1000 nM on GIP receptor [2] (setting [6]), 1 to 10 nM on GLP-1 receptor [3] (setting [7]) and over 1000 nM on GLP-1 receptor [4] (setting [8]). Also, the Emax worked out at 17% on GIP receptor [1] and 99% at GLP-1 receptor [3].
On to `CC[C@H](C)[C@H](NC(=O)[C@H](CC(C)C)NC(=O)[C@H](Cc1c[nH]c2ccccc12)NC(=O)[C@H](CCC(N)=O)NC(=O)[C@@H](NC(=O)[C@H](Cc1ccccc1)NC(=O)[C@H](C)NC(=O)[C@H](CCCCNC(=O)COCCOCCNC(=O)COCCOCCNC(=O)CC[C@H](NC(=O)CCCCCCCCCCCCCCCCCCC(=O)O)C(=O)O)NC(=O)[C@H](CCC(N)=O)NC(=O)[C@H](C)NC(=O)[C@@H](NC(=O)[C@H](CCCCN)NC(=O)[C@H](CC(=O)O)NC(=O)[C@H](CC(C)C)NC(=O)C(C)(C)NC(=O)[C@@H](NC(=O)[C@H](CO)NC(=O)[C@H](Cc1ccc(O)cc1)NC(=O)[C@H](CC(=O)O)NC(=O)[C@H](CO)NC(=O)[C@@H](NC(=O)[C@H](Cc1ccccc1)NC(=O)[C@@H](NC(=O)CNC(=O)C[C@H](CCC(=O)O)NC(=O)CCNC(=O)C(C)(C)c1cc(F)cc(C#N)c1)[C@@H](C)O)[C@@H](C)O)[C@@H](C)CC)[C@@H](C)CC)C(C)C)C(=O)N[C@@H](C)C(=O)NCC(=O)NCC(=O)N1CCC[C@H]1C(=O)N[C@@H](CO)C(=O)N[C@@H](CO)C(=O)NCC(=O)N[C@@H](C)C(=O)N1CCC[C@H]1C(=O)N1CCC[C@H]1C(=O)N1CCC[C@H]1C(=O)N[C@@H](CO)C(N)=O` [Compound 116] ({Isobutyryl(2-(3-CN-5-F-Ph))-βAla}-[β3hE]GTFTSDYSI[Aib]LDKIAQK([AEEA-AEEA-γGlu-C20 diacid])AFVQWLIAGGPSSGAPPPS-NH2), for which the EC50 at GIP receptor [1] (setting [5]) was 100 to 1000 nM; at GIP receptor [2] (setting [6]), over 1000 nM; at GLP-1 receptor [3] (setting [7]) it was 10 to 100 nM; at GLP-1 receptor [4] (setting [8]) it was over 1000 nM. Besides, the Emax came out at 66% on GIP receptor [1] and 94% at GLP-1 receptor [3].
With `CC[C@H](C)[C@H](NC(=O)[C@H](CC(C)C)NC(=O)[C@H](Cc1c[nH]c2ccccc12)NC(=O)[C@H](CCC(N)=O)NC(=O)[C@@H](NC(=O)[C@H](Cc1ccccc1)NC(=O)[C@H](C)NC(=O)[C@H](CCCCNC(=O)COCCOCCNC(=O)COCCOCCNC(=O)CC[C@H](NC(=O)CCCCCCCCCCCCCCCCCCC(=O)O)C(=O)O)NC(=O)[C@H](CCC(N)=O)NC(=O)[C@H](C)NC(=O)[C@@H](NC(=O)[C@H](CCCCN)NC(=O)[C@H](CC(=O)O)NC(=O)[C@H](CC(C)C)NC(=O)C(C)(C)NC(=O)[C@@H](NC(=O)[C@H](CO)NC(=O)[C@H](Cc1ccc(O)cc1)NC(=O)[C@H](CC(=O)O)NC(=O)[C@H](CO)NC(=O)[C@@H](NC(=O)[C@H](Cc1ccccc1)NC(=O)[C@@H](NC(=O)CNC(=O)[C@H](CCC(=O)O)NC(=O)CCNC(=O)C(CC)(CC)c1ccccc1)[C@@H](C)O)[C@@H](C)O)[C@@H](C)CC)[C@@H](C)CC)C(C)C)C(=O)N[C@@H](C)C(=O)NCC(=O)NCC(=O)N1CCC[C@H]1C(=O)N[C@@H](CO)C(=O)N[C@@H](CO)C(=O)NCC(=O)N[C@@H](C)C(=O)N1CCC[C@H]1C(=O)N1CCC[C@H]1C(=O)N1CCC[C@H]1C(=O)N[C@@H](CO)C(N)=O` [Compound 218] ({X33-βAla}-EGTFTSDYSI[Aib]LDKIAQK([AEEA-AEEA-γGlu-C20 diacid])AFVQWLIAGGPSSGAPPPS-NH2), the EC50 is 0.1 to 1 nM on GIP receptor [1] (setting [5]), under 1000 nM at GIP receptor [2] (setting [6]), 0.1 to 1 nM on GLP-1 receptor [3] (setting [7]) and over 1000 nM on GLP-1 receptor [4] (setting [8]). In addition, the results for the Emax on GIP receptor [1] and on GLP-1 receptor [3] were 100% and 103%, respectively.
